Measured values published in PubChem BioAssay (NCI).
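Five concentrations, 48 hours, 96-well plates. TGI marks complete inhibition of growth.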

Experiments:
Experiment in all cases: NCI anticancer screen, dose series, 48 h
[1] = system: MALME-3M melanoma
[2] = system: NCI/ADR-RES ovarian
[3] = system: HOP-18 NSCLC
[4] = system: M14 melanoma
[5] = system: OVCAR-4 ovarian
[6] = system: SN12C renal
[7] = system: U251 CNS
[8] = system: KM20L2 colon
[9] = system: HCC-2998 colon
[10] = system: UACC-62 melanoma
[11] = system: DLD-1 colon
[12] = system: HS 578T breast
[13] = system: SW-620 colon
[14] = system: CCRF-CEM leukemia
[15] = system: NCI-H23 lung
[16] = system: EKVX NSCLC
[17] = system: HOP-92 NSCLC
[18] = system: RXF 393 renal
[19] = system: SF-539 CNS
[20] = system: HT29 colon
[21] = system: MDA-MB-231 breast
[22] = system: PC-3 prostate
[23] = system: MCF7 breast
[24] = system: K-562 leukemia
[25] = system: SNB-19 CNS
[26] = system: HOP-62 NSCLC
[27] = system: DMS 114 small cell lung
[28] = system: DMS 273 small cell lung
[29] = system: 786-0 renal
[30] = system: A498 renal
[31] = system: LXFL 529 NSCLC
[32] = system: KM12 colon
[33] = system: SF-268 CNS
[34] = system: SNB-75 CNS
[35] = system: MDA-N
[36] = system: LOX IMVI melanoma
[37] = system: ACHN renal
[38] = system: TK-10 renal
[39] = system: SR leukemia
[40] = system: HCT-15 colon
[41] = system: CAKI-1 renal
[42] = system: IGROV1 ovarian
[43] = system: SNB-78 CNS
[44] = system: NCI-H460 lung
[45] = system: COLO 205 colon
[46] = system: DU-145 prostate
[47] = system: M19-MEL melanoma
[48] = system: UACC-257 melanoma
[49] = system: SK-MEL-5 melanoma
[50] = system: RPMI-8226 leukemia
[51] = system: SK-MEL-2 melanoma
[52] = system: UO-31 renal
[53] = system: SF-295 CNS
[54] = system: A549 NSCLC
[55] = system: OVCAR-3 ovarian
[56] = system: BT-549 breast
[57] = system: SK-OV-3 ovarian
[58] = system: OVCAR-5 ovarian
[59] = system: OVCAR-8 ovarian
[60] = system: XF 498 CNS
[61] = system: SK-MEL-28 melanoma
[62] = system: HCT-116 colon
[63] = system: T-47D breast
[64] = system: HL-60(TB) leukemia
[65] = system: MDA-MB-435
[66] = system: NCI-H226 lung
[67] = system: NCI-H522 lung
[68] = system: MOLT-4 leukemia

CN(C)CC1(Cc2ccccc2)CCC(Cc2ccccc2)C1=O (stereo not drawn)
TGI [1]: 27.2 µM | TGI [2]: 40 µM | TGI [3]: 21.3 µM | TGI [4]: 23.9 µM | TGI [5]: 31 µM | TGI [6]: 23.9 µM | TGI [7]: 31.8 µM | TGI [8]: 32.4 µM | TGI [9]: 21.4 µM | TGI [10]: 32.5 µM | TGI [11]: 8.26 µM | TGI [12]: 48.9 µM | TGI [13]: 11.1 µM | TGI [14]: 12.5 µM | TGI [15]: 36.1 µM | TGI [16]: 31.8 µM | TGI [17]: 40 µM | TGI [18]: 27.5 µM | TGI [19]: 33.5 µM | TGI [20]: 28.6 µM | TGI [21]: 24.3 µM | TGI [22]: 22.9 µM | TGI [23]: 24.9 µM | TGI [24]: 7.74 µM | TGI [25]: 29.7 µM | TGI [26]: 33 µM | TGI [27]: 36.4 µM | TGI [28]: 29 µM | TGI [29]: 4.37 µM | TGI [30]: 29.8 µM | TGI [31]: 7.32 µM | TGI [32]: 20.9 µM | TGI [33]: 22.6 µM | TGI [34]: 30 µM | TGI [35]: 25 µM | TGI [36]: 15.7 µM | TGI [37]: 29.7 µM | TGI [38]: 26.7 µM | TGI [39]: 33.3 µM | TGI [40]: 13.3 µM | TGI [41]: 23.3 µM | TGI [42]: 24.1 µM | TGI [43]: 43.4 µM | TGI [44]: 30.6 µM | TGI [45]: 19.4 µM | TGI [46]: 28.7 µM | TGI [47]: 32 µM | TGI [48]: 29.1 µM | TGI [49]: 27.4 µM | TGI [50]: 6.84 µM | TGI [51]: 27.3 µM | TGI [52]: 30.7 µM | TGI [53]: 31.2 µM | TGI [54]: 33.5 µM | TGI [55]: 16.2 µM | TGI [56]: 25.5 µM | TGI [57]: 36.4 µM | TGI [58]: 32.8 µM | TGI [59]: 18.2 µM | TGI [60]: 36.3 µM | TGI [61]: 26.6 µM | TGI [62]: 26.7 µM | TGI [63]: 51.5 µM | TGI [64]: 12.5 µM | TGI [65]: 23.8 µM | TGI [66]: 37.9 µM | TGI [67]: 7.59 µM | TGI [68]: 9.11 µM
